Data as given in PubChem BioAssay (NCI).
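GI50: concentration for 50% inhibition of growth. TGI: concentration producing complete growth inhibition.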

Columns and labels:
Experiment in all cases: NCI tumour cell line growth inhibition, 384-well format
COLO 205 colon = tested on: COLO 205 colon
HCT-116 colon = tested on: HCT-116 colon
HL-60(TB) leukemia = tested on: HL-60(TB) leukemia
K-562 leukemia = tested on: K-562 leukemia
MDA-MB-231 breast = tested on: MDA-MB-231 breast
MDA-MB-435 melanoma = tested on: MDA-MB-435 melanoma
NCI-H23 lung = tested on: NCI-H23 lung
OVCAR-8 ovarian = tested on: OVCAR-8 ovarian
SF-268 CNS = tested on: SF-268 CNS
SF-539 CNS = tested on: SF-539 CNS
SR leukemia = tested on: SR leukemia
SW-620 colon = tested on: SW-620 colon
UACC-257 melanoma = tested on: UACC-257 melanoma

In the case of CC(F)(F)c1cc(F)ccc1-c1sc2cc(O)ccc2c1Oc1ccc(/C=C/C(=O)O)cc1, the GI50 (COLO 205 colon) is reported as 16.5 µM, the TGI (COLO 205 colon) is reported as 31.7 µM and the GI50 (HCT-116 colon) is reported as 15.6 µM. The TGI (HCT-116 colon) was 30.5 µM, the GI50 (HL-60(TB) leukemia) was 14.6 µM and the TGI (HL-60(TB) leukemia) was 27.8 µM. For the same compound, the GI50 (K-562 leukemia) was 10.9 µM, the TGI (K-562 leukemia) was 24.4 µM and the GI50 (MDA-MB-231 breast) was 15.7 µM. It also gave a TGI (MDA-MB-231 breast) of 29.5 µM, a GI50 (MDA-MB-435 melanoma) of 3.24 µM and a TGI (MDA-MB-435 melanoma) of 12.8 µM. The GI50 (NCI-H23 lung) was 16.3 µM, the TGI (NCI-H23 lung) was 30.7 µM and the GI50 (OVCAR-8 ovarian) was 25.4 µM. For the same compound, the TGI (OVCAR-8 ovarian) was > 100 µM, the GI50 (SF-268 CNS) was 16.7 µM and the TGI (SF-268 CNS) was 37.2 µM. For the same compound, the GI50 (SF-539 CNS) was 15.8 µM, the TGI (SF-539 CNS) was 29.8 µM and the GI50 (SR leukemia) was 2080 nM. It also gave a TGI (SR leukemia) of 4.33 µM, a GI50 (SW-620 colon) of 16.9 µM and a TGI (SW-620 colon) of 30.9 µM. It also gave a GI50 (UACC-257 melanoma) of 17 µM and a TGI (UACC-257 melanoma) of 36.4 µM.
